In US8853258B2, “C-linked hydroxamic acid derivatives useful as antibacterial agents” (Pfizer Inc., priority 2009, dated 2014):
Values after ≈ are worked out from the molar mass of the structure shown. Read-outs that look alike come from different tables or passages of the source.

Legend:
Format in all cases: cell-based
[1] = system: Pseudomonas aeruginosa UI-18: Wild-type (PA-7); test: MIC determination (CLSI), PA-7; details: for PA-7 MIC: Pseudomonas aeruginosa UI-18 wild-type PA-7; for MIC: Pseudomonas aeruginosa
Method in brief: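 Wild-type P. aeruginosa UI-18 tested for minimum inhibitory concentration. Broth/agar dilution following CLSI standards (M7-A7, M100-S18).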

[2] = system: Klebsiella pneumoniae: Ciprofloxacin-resistant isolate, ESBL, clinical isolate (KP-3700); test: MIC determination (CLSI), KP-3700
Method in brief: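 Strain KP-3700, a clinical isolate producing extended-spectrum β-lactamases and resistant to ciprofloxacin, was tested. Minimum inhibitory concentrations determined via CLSI dilution methodology (M7-A7; M100-S18).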

[3] = system: Acinetobacter baumanii/haemolyticus: Multidrug-resistant clinical isolate (AB-3167); test: MIC determination (CLSI), AB-3167; details: for AB-3167 MIC: Acinetobacter baumanii/haemolyticus multidrug-resistant clinical isolate AB-3167; for MIC: Acinetobacter baumannii
Method in brief: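 Multidrug-resistant clinical isolate AB-3167 (A. baumannii/haemolyticus) tested for minimum inhibitory concentration following CLSI dilution susceptibility standards M7-A7 and M100-S18.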

[4] = system: Escherichia coli EC-1: VOGEL, mouse virulent; test: MIC determination (CLSI), EC-1; details: for EC-1 MIC: Escherichia coli EC-1 VOGEL, mouse virulent; for MIC: Escherichia coli
Method in brief: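 E. coli Vogel, a mouse-virulent strain (EC-1), was tested. MICs were set by dilution susceptibility testing per CLSI standards M7-A7/M100-S18.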

[5] = Table 1, MIC, read-out: PA-7 (MIC)
[6] = Table 1, MIC, read-out: AB-3167 (MIC)

Row | SMILES | PA-7 MIC [1] | KP-3700 MIC [2] | AB-3167 MIC [3] | EC-1 MIC [4] | MIC ([1]; Table 3, read-out: PA-7 MIC) | MIC ([3]; Table 3, read-out: AB-3167 MIC) | MIC ([4]; read-out: EC-1 MIC) | MIC [1, 5] | MIC [3, 6] | MIC ([4]; read-out: EC-1: (MIC))
1 | Cc1ccccc1-c1ccc(CCC(C)(C(=O)NO)S(C)(=O)=O)cc1 (racemic) [Example 58] | 4 µg/mL | 32 µg/mL | 32 µg/mL | 8 µg/mL | – | – | – | – | – | –
2 | C[C@@](CCc1ccc(-c2ccc(F)cc2)cc1)(C(=O)NO)S(C)(=O)=O [Example 110] | 0.25 µg/mL | 4 µg/mL | 8 µg/mL | 2 µg/mL | – | – | – | – | – | –
3 | COc1cccc(F)c1-c1ccc(CCC(C)(C(=O)NO)S(C)(=O)=O)cc1 (stereo not drawn) [Example 41] | 8 µg/mL | ≧64 mg/L | ≧64 mg/L | 16 µg/mL | – | – | – | – | – | –
4 | CSc1ccccc1-c1ccc(CCC(C)(C(=O)NO)S(C)(=O)=O)cc1 (stereo not drawn) [Example 94] | 32 µg/mL | ≧64 mg/L | ≧64 mg/L | 32 µg/mL | – | – | – | – | – | –
5 | CC(CCc1ccc(Br)cc1)(C(=O)NO)S(C)(=O)=O (stereo not drawn) [Example 32] | 32 µg/mL | ≧64 mg/L | ≧64 mg/L | 32 µg/mL | – | – | – | – | – | –
6 | CC(CCc1ccc(OCc2nc(-c3cccc(F)c3F)no2)cc1)(C(=O)NO)S(C)(=O)=O (stereo not drawn) [Example 253, 4-(4-{[3-(2,3-difluorophenyl)-1,2,4-oxadiazol-5-yl]methoxy}phenyl)-N-hydroxy-2-methyl-2-(methylsulfonyl)butanamide] | – | ≧64 mg/L | – | – | 32 µg/mL (≈ 66.5 µM) | ≥ 64 µg/mL | 8 µg/mL (≈ 16.6 µM) | – | – | –
7 | CC(CCc1ccc(-c2ccc(S(C)(=O)=O)cc2)cc1)(C(=O)NO)S(C)(=O)=O (racemic) [Example 79] | 4 µg/mL | ≧64 mg/L | ≧64 mg/L | 32 µg/mL | – | – | – | – | – | –
8 | CN(C)c1ccc(-c2ccc(CCC(C)(C(=O)NO)S(C)(=O)=O)cc2)cn1 (stereo not drawn) [Example 35] | 32 µg/mL | 16 µg/mL | ≧64 mg/L | 4 µg/mL | – | – | – | – | – | –
9 | CCCOc1ccc(CCC(C)(C(=O)NO)S(C)(=O)=O)cc1 (stereo not drawn) [Example 237, N-hydroxy-2-methyl-2-(methylsulfonyl)-4-(4-propoxyphenyl)butanamide] | – | ≧64 mg/L | – | – | 8 µg/mL (≈ 24.3 µM) | ≥ 64 µg/mL | 32 µg/mL (≈ 97.1 µM) | – | – | –
10 | CC(CCc1ccc(OCc2c(F)cccc2Cl)cc1)(C(=O)NO)S(C)(=O)=O (stereo not drawn) [Example 276, 4-{4-[(2-chloro-6-fluorobenzyl)oxy]phenyl}-N-hydroxy-2-methyl-2-(methylsulfonyl)butanamide] | – | 16 µg/mL | – | – | 4 µg/mL (≈ 9.3 µM) | 32 µg/mL (≈ 74.4 µM) | 4 µg/mL (≈ 9.3 µM) | – | – | –
11 | CC(CCc1ccc(OCC2CC2)cc1)(C(=O)NO)S(C)(=O)=O (stereo not drawn) [Example 246, 4-[4-(cyclopropylmethoxy)phenyl]-N-hydroxy-2-methyl-2-(methylsulfonyl)butanamide] | – | ≧64 mg/L | – | – | ≥ 64 µg/mL | ≥ 64 µg/mL | 32 µg/mL (≈ 93.7 µM) | – | – | –
12 | CC(CCc1ccc(-c2ccccc2C#N)cc1)(C(=O)NO)S(C)(=O)=O (stereo not drawn) [Example 105] | 16 µg/mL | 32 µg/mL | ≧64 mg/L | 8 µg/mL | – | – | – | – | – | –
13 | Cc1cccc(COc2ccc(CCC(C)(C(=O)NO)S(C)(=O)=O)cc2)c1F (stereo not drawn) [Example 262, 4-{4-[(2-fluoro-3-methylbenzyl)oxy]phenyl}-N-hydroxy-2-methyl-2-(methylsulfonyl)butanamide] | – | 8 µg/mL | – | – | 2 µg/mL (≈ 4.88 µM) | 16 µg/mL (≈ 39.1 µM) | 1 µg/mL (≈ 2.44 µM) | – | – | –
14 | CC(CCc1ccc(-c2ccc(C#N)cn2)cc1)(C(=O)NO)S(C)(=O)=O (stereo not drawn) [Example 129] | 4 µg/mL | ≧64 mg/L | ≧64 mg/L | 16 µg/mL | – | – | – | – | – | –
15 | Cc1ccc(C)c(COc2ccc(CCC(C)(C(=O)NO)S(C)(=O)=O)cc2)c1 (stereo not drawn) [Example 254, 4-{4-[(2,5-dimethylbenzyl)oxy]phenyl}-N-hydroxy-2-methyl-2-(methylsulfonyl)butanamide] | – | ≧64 mg/L | – | – | 16 µg/mL (≈ 39.5 µM) | 16 µg/mL (≈ 39.5 µM) | 8 µg/mL (≈ 19.7 µM) | – | – | –
16 | CC(CCc1ccc(OCCc2ccccc2)cc1)(C(=O)NO)S(C)(=O)=O (stereo not drawn) [Example 271, N-hydroxy-2-methyl-2-(methylsulfonyl)-4-[4-(2-phenylethoxy)phenyl]butanamide] | – | ≧64 mg/L | – | – | ≥ 64 µg/mL | 32 µg/mL (≈ 81.7 µM) | 16 µg/mL (≈ 40.9 µM) | – | – | –
17 | CC(CCc1ccc(-n2cc3ccccc3n2)cc1)(C(=O)NO)S(C)(=O)=O (racemic) [Example 22, (+/−)-N-hydroxy-4-[4-(2H-indazol-2-yl)phenyl]-2-methyl-2-(methylsulfonyl)butanamide] | – | 8 µg/mL | – | – | – | – | – | 4 µg/mL (≈ 10.3 µM) | ≥ 64 µg/mL | 4 µg/mL (≈ 10.3 µM)

Row | SMILES | PA-7 MIC [1] | KP-3700 MIC [2] | AB-3167 MIC [3] | EC-1 MIC [4] | MIC ([1]; Table 3, read-out: PA-7 MIC) | MIC ([3]; Table 3, read-out: AB-3167 MIC) | MIC ([4]; read-out: EC-1 MIC) | MIC [1, 5] | MIC [3, 6] | MIC ([4]; read-out: EC-1: (MIC))
18 | CCCCCCOc1ccc(CCC(C)(C(=O)NO)S(C)(=O)=O)cc1 (stereo not drawn) [Example 252, 4-[4-(hexyloxy)phenyl]-N-hydroxy-2-methyl-2-(methylsulfonyl)butanamide] | – | 32 µg/mL | – | – | 16 µg/mL (≈ 43.1 µM) | 4 µg/mL (≈ 10.8 µM) | 8 µg/mL (≈ 21.5 µM) | – | – | –
19 | Cc1cc(-c2ccc(CCC(C)(C(=O)NO)S(C)(=O)=O)cc2)ccc1O (stereo not drawn) [Example 137] | 4 µg/mL | 32 µg/mL | ≧64 mg/L | 16 µg/mL | – | – | – | – | – | –
20 | CC(CCc1ccc(OC2CCCCC2)cc1)(C(=O)NO)S(C)(=O)=O (stereo not drawn) [Example 238, 4-[4-(cyclohexyloxy)phenyl]-N-hydroxy-2-methyl-2-(methylsulfonyl)butanamide] | – | ≧64 mg/L | – | – | 8 µg/mL (≈ 21.7 µM) | 32 µg/mL (≈ 86.6 µM) | 32 µg/mL (≈ 86.6 µM) | – | – | –
21 | Cc1ccc(-c2noc(COc3ccc(CCC(C)(C(=O)NO)S(C)(=O)=O)cc3)n2)cc1 (stereo not drawn) [Example 269, N-hydroxy-2-methyl-4-(4-{[3-(4-methylphenyl)-1,2,4-oxadiazol-5-yl]methoxy}phenyl)-2-(methylsulfonyl)butanamide] | – | ≧64 mg/L | – | – | ≥ 64 µg/mL | ≥ 64 µg/mL | 4 µg/mL (≈ 8.7 µM) | – | – | –
22 | CC(CCc1ccc(-c2ccc(CO)cc2)cc1)(C(=O)NO)S(C)(=O)=O (stereo not drawn) [Example 112] | 4 µg/mL | ≧64 mg/L | ≧64 mg/L | ≧64 mg/L | – | – | – | – | – | –
23 | CC(CCc1ccc(OCCC2CCCC2)cc1)(C(=O)NO)S(C)(=O)=O (stereo not drawn) [Example 312, 4-[4-(2-cyclopentylethoxy)phenyl]-N-hydroxy-2-methyl-2-(methylsulfonyl)butanamide] | – | ≧64 mg/L | – | – | 8 µg/mL (≈ 20.9 µM) | 2 µg/mL (≈ 5.21 µM) | 8 µg/mL (≈ 20.9 µM) | – | – | –
24 | CC(CCc1ccc(OCc2nc(Cc3cc(F)ccc3F)no2)cc1)(C(=O)NO)S(C)(=O)=O (stereo not drawn) [Example 256, 4-(4-{[3-(2,5-difluorobenzyl)-1,2,4-oxadiazol-5-yl]methoxy}phenyl)-N-hydroxy-2-methyl-2-(methylsulfonyl)butanamide] | – | ≧64 mg/L | – | – | ≥ 64 µg/mL | ≥ 64 µg/mL | 32 µg/mL (≈ 64.6 µM) | – | – | –
25 | COc1ccc(CCC(C)(C(=O)NO)S(C)(=O)=O)cc1 (stereo not drawn) [Example 135] | 32 µg/mL | ≧64 mg/L | ≧64 mg/L | ≧64 mg/L | – | – | – | – | – | –
26 | Cc1cc(C)cc(COc2ccc(CCC(C)(C(=O)NO)S(C)(=O)=O)cc2)c1 (stereo not drawn) [Example 257, 4-{4-[(3,5-dimethylbenzyl)oxy]phenyl}-N-hydroxy-2-methyl-2-(methylsulfonyl)butanamide] | – | 32 µg/mL | – | – | 32 µg/mL (≈ 78.9 µM) | ≥ 64 µg/mL | 4 µg/mL (≈ 9.86 µM) | – | – | –
27 | CS(=O)(=O)C(CCc1ccc(-c2ccc(F)cc2)cc1)C(=O)NO (stereo not drawn) [Example 24, 4-(4′-Fluorobiphenyl-4-yl)-N-hydroxy-2-(methylsulfonyl)butanamide] | – | 32 µg/mL | – | – | – | – | – | 1 µg/mL (≈ 2.85 µM) | 32 µg/mL (≈ 91.1 µM) | 32 µg/mL (≈ 91.1 µM)
28 | COc1ccc(-c2ccc(CCC(C)(C(=O)NO)S(C)(=O)=O)cc2)c(OC)c1 (racemic) [Example 65] | 2 µg/mL | 2 µg/mL | 32 µg/mL | 1 µg/mL | – | – | – | – | – | –
29 | CC(CCc1ccc(-c2cnc(N3CCOCC3)nc2)cc1)(C(=O)NO)S(C)(=O)=O (stereo not drawn) [Example 39] | ≧64 mg/L | 32 µg/mL | ≧64 mg/L | 4 µg/mL | – | – | – | – | – | –
30 | COc1ccc(-c2ccc(CCC(C)(C(=O)NO)S(C)(=O)=O)cc2)cc1OC (stereo not drawn) [Example 33] | 16 µg/mL | 32 µg/mL | ≧64 mg/L | 16 µg/mL | – | – | – | – | – | –
31 | CC(CCc1ccc(-c2ccc(CCN)cc2)cc1)(C(=O)NO)S(C)(=O)=O (stereo not drawn) [Example 114] | 16 µg/mL | ≧64 mg/L | ≧64 mg/L | ≧64 mg/L | – | – | – | – | – | –
32 | CC(CCc1ccc(-c2ccc(CN)cc2)cc1)(C(=O)NO)S(C)(=O)=O (stereo not drawn) [Example 111] | 32 µg/mL | ≧64 mg/L | ≧64 mg/L | ≧64 mg/L | – | – | – | – | – | –
33 | CC(CCc1ccc(-c2ccc(C#N)s2)cc1)(C(=O)NO)S(C)(=O)=O (racemic) [Example 82] | 0.5 µg/mL | 2 µg/mL | 8 µg/mL | 0.5 µg/mL | – | – | – | – | – | –
